# Where “and” joins values, the source holds several entries; their conditions need not be identical. Equal values may be shown once.
# What was measured:
# [1] = biological target: T1, hMOR (Homo sapiens, UniProt P35372); test: CAMYEL BRET cAMP agonist assay at hMOR; format: cell-based; settings: hMOR, single replicates, source data Fig 6c
# T1 construct: expressed in transfected cells; plasmid a gift from Dr. Nevin Lambert
# [2] = biological target: T2, rKOR (Rattus norvegicus, UniProt P34975); test: CAMYEL BRET cAMP agonist assay at rKOR; format: cell-based; settings: individual replicates, Supplementary Figure 8B source data
# T2 construct: expressed in transfected cells
# [3] = biological target: T3, mMOR (Mus musculus, UniProt P42866); test: [125I]BNtxA radioligand competition binding, mouse MOR
# T3 construct: signal peptide (heterologous, not specified) (N); expressed in transfected cells; pcDNA3.1(+) construct made in house
# [4] = biological target: hDOR (Homo sapiens, UniProt P41143); test: CAMYEL BRET cAMP agonist assay at hDOR; format: cell-based; settings: for Agonist activity of 7OH analogs at hDOR: single replicate values, Supplementary Figure 7A, listed as 7-OH-Mitragynine
# [5] = biological target: T4, mKOR (Mus musculus, UniProt P33534); test: [125I]BNtxA radioligand competition binding, mouse KOR
# T4 construct: expressed in transfected cells; membranes
# [6] = biological target: hKOR (Homo sapiens, UniProt P41145); test: CAMYEL BRET cAMP agonist assay at hKOR; format: cell-based; settings: individual replicates, Supplementary Figure 8A source data
compound,measurement,setting,value
"CC[C@@H]1CN2CC[C@@]3(O)C(=Nc4cccc(OC)c43)[C@@H]2C[C@@H]1/C(=C\OC)C(=O)OC [7OH, 7-Hydroxymitragynine, reference compound]",cAMP %,[1]; Log[drug] (M) -10,2.406% and -6.901% and 4.4945% and -1.371% and 5.724% and -0.06095% and -1.689% and 0.384% and 1.305%
same,cAMP %,[1]; Log[drug] (M) -11,10.0741% and 2.867% and -1.276% and 14.2755% and -12.2251% and 5.789% and 12.061% and -4.689% and 0.8824%
same,cAMP %,"[1]; Log[drug] (M) -13, cAMP inhibition as % of DAMGO",3.998% and -9.01% and 9.508% and 14.9262% and 7.334% and 14.594% and 2.431% and 9.511% and 1.874%
same,Agonist activity of 7OH analogs at rKOR,[2]; Log [drug](M) -5,51.4853 and 69.9742 and 40.1102 and 17.9877 and 23.0672 and 30.6086 and 23.1026 and 36.1112 and 26.5447
same,Agonist activity of 7OH analogs at rKOR,[2]; Log [drug](M) -6,50.3386 and 47.4584 and 37.1736 and 16.4913 and 27.1082 and 15.3746 and 22.6508 and 23.988 and 23.2951
same,Agonist activity of 7OH analogs at rKOR,[2]; Log [drug](M) -7,32.3706 and 5.504 and 6.859 and 19.3779 and 10.5115 and 15.4551 and 8.6 and 9.151 and 16.9313
same,Agonist activity of 7OH analogs at rKOR,[2]; Log [drug](M) -8,4.174 and 5.52 and 21.8967 and -3.058 and 2.36 and 0.6978 and 14.0563 and 6.31 and 24.1641
same,Agonist activity of 7OH analogs at rKOR,[2]; Log [drug](M) -9,4.922 and -12.3356 and 11.254 and 8.301 and 17.6392 and 14.4513 and 3.607 and 6.21 and -1.551
same,Agonist activity of 7OH analogs at rKOR,[2]; Log [drug](M) -10,-1.1625 and -7.143 and 8.305 and 14.5638 and 5.983 and 1.382 and -0.5163 and -2.6368 and 4.024
same,Agonist activity of 7OH analogs at rKOR,[2]; Log [drug](M) -11,3.848 and 0.4662 and 0.6482 and 7.796 and 8.5204 and -1.878 and 0.3369 and -2.372 and 2.035
same,Agonist activity of 7OH analogs at rKOR,[2]; Log [drug](M) -13,5.7561 and 2.46 and -0.5992 and 11.3924 and -1.857 and 11.6902 and 1.603 and -2.596 and 3.807
same,Ki,[3],21.5 ± 0.8 nM
same,EC50,[4],99.9 nM
same,Agonist activity of 7OH analogs at hDOR,[4]; Log[drug] (M) -5,59.4902 and 54.7394 and 48.113 and 45.4731 and 42.3531 and 41.8085 and 33.7355 and 48.8189 and 36.1755
same,Agonist activity of 7OH analogs at hDOR,[4]; Log[drug] (M) -6,47.0072 and 54.0661 and 57.5431 and 39.2612 and 45.3193 and 38.3255 and 32.249 and 29.9213 and 37.5943
same,Agonist activity of 7OH analogs at hDOR,[4]; Log[drug] (M) -7,27.5943 and 29.9093 and 13.7827 and 13.3703 and 19.5028 and 21.8057 and 32.1543 and 37.3674 and 42.4632
same,Agonist activity of 7OH analogs at hDOR,[4]; Log[drug] (M) -8,27.0326 and 26.8622 and 6.318 and -2.952 and 5.202 and 3.255 and 18.5072 and 16.8026 and 16.758
same,Agonist activity of 7OH analogs at hDOR,[4]; Log[drug] (M) -9,15.8661 and 3.122 and 22.479 and 1.833 and -4.308 and 2.475 and 15.4988 and 8.368 and 7.075
same,Agonist activity of 7OH analogs at hDOR,[4]; Log[drug] (M) -10,31.7942 and 19.5741 and 16.1123 and 10.5331 and 9.484 and 5.51 and 21.6698
same,Agonist activity of 7OH analogs at hDOR,[4]; Log[drug] (M) -11,10.918 and -1.6818 and 2.572 and 2.605 and 5.418 and 12.5121 and 11.3973 and 0.7522 and -0.994
same,Agonist activity of 7OH analogs at hDOR,[4]; Log[drug] (M) -13,3.025 and -6.776 and 3.7513 and 10.1702 and 6.174 and 15.4423 and -4.715 and 5.3718 and -0.6565
same,Emax,[4]; read-out: Emax,45%
same,Ki,[5],119 ± 2.1 nM
same,Agonist activity of 7OH analogs at hKOR,[6]; Log [drug](M) -5,25.1107 and 37.2516 and 25.09 and 18.6326 and 7.697 and 7.056 and 12.3573 and 15.4119 and 15.9917
same,Agonist activity of 7OH analogs at hKOR,[6]; Log [drug](M) -6,26.3842 and 27.9158 and 17.2556 and 19.1124 and 15.0208 and 6.652 and 13.1771 and 3.299 and 8.814
same,Agonist activity of 7OH analogs at hKOR,[6]; Log [drug](M) -7,10.6234 and 4.588 and 26.8644 and 8.68 and -0.2355 and 14.6509 and 3.557 and -6.963 and -8.284
same,Agonist activity of 7OH analogs at hKOR,[6]; Log [drug](M) -8,5.978 and -10.4494 and 7.122 and 8.973 and 3.679 and 0.5669 and 3.537 and -8.354 and -5.217
same,Agonist activity of 7OH analogs at hKOR,[6]; Log [drug](M) -9,4.358 and -4.206 and -18.6896 and -3.311 and 1.614 and -2.537 and 1.131 and 5.305 and 46.2002
same,Agonist activity of 7OH analogs at hKOR,[6]; Log [drug](M) -10,-9.33 and 0.6018 and -2.152 and 0.113 and -1.397 and 4.8046 and -5.84 and -6.29 and 4.4418
same,Agonist activity of 7OH analogs at hKOR,[6]; Log [drug](M) -11,2.533 and -16.0954 and -7.281 and -0.5606 and -1.386 and 5.188 and 3.6558 and -6.195 and -4.675
same,Agonist activity of 7OH analogs at hKOR,[6]; Log [drug](M) -13,-2.907 and -1.906 and 4.813 and 2.257 and -10 and 7.743 and -0.9804 and -0.456 and 1.436
